Measurements as given in US5023254A, “Aminoalkylindoles, their production, and pharmaceutical preparations based thereon” (Schering Aktiengesellschaft, priority 1988, dated 1991).
Like-named read-outs stand apart in the source and are kept apart here.

Columns and labels:
mouse uterus [1] = test: Antiuterotrophic test on infantile mouse (anti-estrogen activity); type: in vivo; set-up: Antiuterotrophic Test Rel. uterus wgt / Antiuterotrophic Test Action (rel. uterus wgt): unit not given here; conditions: for inhibition in vivo at 0.025 mg: dose 25 ug (per animal); for inhibition in vivo at 0.005 mg: dose 5 ug (per animal)
Text: (§1) This test is fully described in Cancer Treatment Reviews 1984, 11, 147, and J.Med.Chem., 1984, 27, 1439.

[2] = test system: human MCF-7 breast cancer cells; test: [3H] thymidine incorporation in hormone-dependent human MCF-7 breast cancer cells; type: cell-based; conditions: for activity at 0.1 µM / activity at 0.5 µM / activity at 1 µM / activity at 5 µM: Homo sapiens, read-out: [3H] Thymidine incorporation (% T/C)
Text: (§2) The test protocol for the research is fully described in Eur.J. Cancer Clin. Oncol.

[3] = test system: human MCF-7 breast cancer cells; test: growth of hormone-dependent human MCF-7 breast cancer cells, cell count; type: cell-based; conditions: for activity at 0.1 µM / activity at 0.5 µM / activity at 1 µM / activity at 5 µM / activity at 10 µM: Homo sapiens, read-out: Cell Count (% T/C); for activity at 10 µM: MCF-7, 1 × 10^-5 M
Text: as §2

mouse uterus [4] = test: Uterotrophic test on infantile mouse (estrogen activity); type: in vivo; set-up: unit not given here
Text: as §1

estrogen receptor = target: T1, estrogen receptor (Bos taurus, UniProt P49884); test: relative binding affinity (RBA) for the estrogen receptor from calf uterus, displacement of 3H-17β estradiol; conditions: calf uterus; relative to 17 beta estradiol = 100
T1 construct: estrogen receptor from calf uterus; from tissue; host or cells: calf uterus
T1 sequence (P49884 1-596): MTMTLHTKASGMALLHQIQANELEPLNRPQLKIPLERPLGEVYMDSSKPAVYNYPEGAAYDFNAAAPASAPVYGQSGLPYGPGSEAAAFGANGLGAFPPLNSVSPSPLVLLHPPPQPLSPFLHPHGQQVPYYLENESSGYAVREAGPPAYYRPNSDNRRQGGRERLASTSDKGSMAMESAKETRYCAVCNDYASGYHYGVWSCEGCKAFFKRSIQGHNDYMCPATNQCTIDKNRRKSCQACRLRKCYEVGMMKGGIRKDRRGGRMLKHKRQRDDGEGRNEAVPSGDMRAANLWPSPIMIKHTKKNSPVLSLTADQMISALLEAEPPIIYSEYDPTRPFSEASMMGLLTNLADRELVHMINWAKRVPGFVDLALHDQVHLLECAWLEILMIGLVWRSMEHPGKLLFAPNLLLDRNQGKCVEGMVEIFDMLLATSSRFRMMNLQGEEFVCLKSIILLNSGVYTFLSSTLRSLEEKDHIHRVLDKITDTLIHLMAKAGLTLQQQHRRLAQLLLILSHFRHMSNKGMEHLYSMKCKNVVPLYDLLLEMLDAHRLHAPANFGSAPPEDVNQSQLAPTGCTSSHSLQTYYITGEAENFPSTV
Text: *Relative binding affinities for the estrogen receptor from calf uterus,

[5] = 10^-7 M, six days after incubation
[6] = Mus musculus, read-out: Antiuterotrophic Test Inhib. (%)
[7] = infantile mouse, read-out: Antiuterotrophic Test Inhib. (%)
[8] = infantile mouse, dose 5 ug/animal
[9] = infantile mouse, dose 25 ug/animal

Row | RBA (relative binding affinity for the estrogen receptor) (estrogen receptor) | SMILES | Antiuterotrophic Test Rel. uterus wgt (mouse uterus [1]; infantile mouse, dose 1 ug) | Antiuterotrophic Test Rel. uterus wgt (mouse uterus [1]; infantile mouse, dose 5 ug) | Antiuterotrophic Test Rel. uterus wgt (mouse uterus [1]; infantile mouse, dose 25 ug) | Antiuterotrophic Test Rel. uterus wgt (mouse uterus [1]; infantile mouse, dose 125 ug) | Uterotrophic Test Rel. uterus wgt (mouse uterus [4]; dose 5 ug) | activity at 1 µM ([2]; MCF7, MCF-7, 1 × 10^-6 M) [%] | activity at 0.1 µM ([2]; MCF7, MCF-7, 1 × 10^-7 M) [%] | activity at 1 µM ([3]; MCF7, MCF-7, 1 × 10^-6 M) [%] | activity at 0.1 µM ([3]; MCF7, MCF-7, 1 × 10^-7 M) [%] | inhibition in vivo at 0.125 mg (mouse uterus [1]; [6]) [%] | inhibition in vivo at 0.025 mg (mouse uterus [1]; [7]) [%] | activity at 5 µM ([3]; MCF7, MCF-7, 5 × 10^-6 M) [%] | activity at 0.5 µM ([3]; MCF7, MCF-7, 5 × 10^-7 M) [%] | inhibition in vivo at 0.005 mg (mouse uterus [1]; [7]) [%] | Antiuterotrophic Test Action (rel. uterus wgt) (mouse uterus [1]; [8]) | Antiuterotrophic Test Action (rel. uterus wgt) (mouse uterus [1]; [9]) | activity at 10 µM ([3]; MCF7) [%] | Uterotrophic Test Action (rel. uterus wgt) (mouse uterus [4]; dose 5 ug/animal) | Uterotrophic Test Action (rel. uterus wgt) (mouse uterus [4]; dose 25 ug/animal) | other results
1 |  | Cc1c(-c2ccc(O)cc2)n(CCCCCCN2CCCC2)c2ccc(O)cc12 [Compound 6, 5-Hydroxy-2-(4-hydroxyphenyl)-3-methyl-1-[6-pyrrolidino-hexyl]-indole] | 48.3 ± 7.2 | 20.1 ± 7.3 | 12.6 ± 1.9 | 8.9 ± 1.6 | 9.0 ± 1.8 |  |  |  |  |  |  |  |  |  |  |  |  |  |  | inhibition in vivo at 0.001 mg (mouse uterus [1]; Mus musculus, read-out: Antiuterotrophic Test Inhib. (%), infantile mouse, dose 1 ug): 20%; activity at 0.1 µM ([2]; MCF7, […]): 32%; activity at 0.5 µM ([2]; MCF7, […]): 32%; activity at 1 µM ([2]; MCF7, […]): 22%; activity at 5 µM ([2]; MCF7, […]): 3%; activity at 0.1 µM ([3]; MCF7, […]): 65%; activity at 0.5 µM ([3]; MCF7, […]): 49%; activity at 1 µM ([3]; MCF7, […]): 24%; activity at 5 µM ([3]; MCF7, […]): 12%; Uterotrophic Test Rel. uterus wgt (mouse uterus [4]; dose 50 ug): 8.2 ± 1.8; Uterotrophic Test Rel. uterus wgt (mouse uterus [4]; dose 250 ug): 12.7 ± 2.7
2 |  | CC/C(=C(\c1ccccc1)c1ccc(OCCN(C)C)cc1)c1ccccc1 [Tamoxifen, reference compound] |  |  |  |  |  | 27 | 71 | 27 | 77 |  |  |  |  |  |  |  |  |  |  | thymidine incorporation (in words) [2, 5]: no significant effect; inhibition of MCF-7 cell growth / cell count (in words) [3, 5]: no significant effect
3 | 3.6 | Cc1c(-c2ccc(O)cc2)n(CCCCN2CCCC2)c2ccc(O)cc12 [Compound 1, 5-Hydroxy-2-(4-hydroxyphenyl)-3-methyl-1-[4-pyrrolidino-butyl]-indole] | 43.7 ± 8.2 | 47.6 ± 10.5 | 16.2 ± 4.6 | 25.5 ± 7.9 | 8.0 ± 3.1 | 85 | 67 | 94 | 106 | 53 | 78 | 62 | 84 |  |  |  |  |  |  | inhibition in vivo at 0.001 mg (mouse uterus [1]; infantile mouse, dose 1 ug, read-out: Antiuterotrophic Test Inhib. (%)): 5%; activity at 5 µM ([2]; MCF7, MCF-7, 5 × 10^-6 M): 74%; activity at 0.5 µM ([2]; MCF7, MCF-7, 5 × 10^-7 M): 76%; Uterotrophic Test Rel. uterus wgt (mouse uterus [4]; dose 1 ug): 7.6 ± 2.8; Uterotrophic Test Rel. uterus wgt (mouse uterus [4]; dose 25 ug): 6.4 ± 1.1; Uterotrophic Test Rel. uterus wgt (mouse uterus [4]; dose 125 ug): 6.4 ± 1.3
4 | 15 | CCN(CC)C(=O)CCCCCn1c(-c2ccc(O)cc2)c(C)c2cc(O)ccc21 [Compound 19, 1-(6-Diethylcarbamoylpentyl)-5-hydroxy-2-(4-hydroxyphenyl)-3-methylindole] |  |  |  |  |  |  |  | 61.4 ± 4.4 | 59.7 ± 6.1 | 34 | 13 | 56.2 ± 4.5 | 60.1 ± 3.8 | 13 | 50.9 ± 8.2 | 50.9 ± 4.8 | 44.9 ± 3.7 | 18.4 ± 3.2 | 17.9 ± 2.0 | Antiuterotrophic Test Action (rel. uterus wgt) (mouse uterus [1]; infantile mouse, dose 625 ug/animal): 35.3 ± 6.1; inhibition in vivo at 0.625 mg (mouse uterus [1]; infantile mouse, dose 625 ug/animal, read-out: Antiuterotrophic Test Inhib. (%)): 66%; Uterotrophic Test Action (rel. uterus wgt) (mouse uterus [4]; dose 625 ug/animal): 32.7 ± 6.5
5 | 19 | Cc1c(-c2ccc(O)cc2)n(CCCCCC(=O)N2CCCCC2)c2ccc(O)cc12 [Compound 17, 5-Hydroxy-2-(4-hydroxyphenyl)-3-methyl-1-(6-piperidinocarbonylpentyl)-indole] |  |  |  |  |  |  |  | 96 ± 7.7 | 89 ± 10.8 | 59 | 22 | 99.6 ± 7.6 | 95.5 ± 10.2 | 6 | 48.7 ± 9.1 | 42.9 ± 4.7 | 86.5 ± 8.3 | 17.7 ± 3.2 | 16.3 ± 3.0 | Uterotrophic Test Action (rel. uterus wgt) (mouse uterus [4]; dose 1 ug/animal): 23.8 ± 2.8
